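Each compound was tested at five concentrations against cells in 96-well plates for 48 hours. GI50 = concentration required for 50% inhibition of growth.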 Calls of active or inactive are those of the source. No stated cut-off is given here; in the data, active = GI50 up to about 1.1 µM and inactive = higher.

The values that follow come from ChEMBL document CHEMBL1201862, “PubChem BioAssay data set” (2004).

Common to all, as to experiment: growth of human tumour cells (NCI), 48 h
Assay [1] deals with SW-620.
The subject of assay [2] is NCI-H23.
Assay [3] deals with Hs-578T.
The subject of assay [4] is RXF 393.
Assay [5] deals with A498.
Assay [6] has as its system UO-31.
Assay [7] deals with A549.
Assay [8] concerns HOP-62.
Assay [9] relates to COLO 205.
For assay [10], the system named is HOP-92.
The test system of assay [11] is UACC-257.
In assay [12] the test system is M14.
Assay [13] has as its system OVCAR-4.
Assay [14] concerns PC-3.
Assay [15] concerns HL-60.
The subject of assay [16] is RPMI-8226.
The test system of assay [17] is NCI-H522.
The subject of assay [18] is SK-MEL-28.
The test system of assay [19] is HCC 2998.
In assay [20] the test system is EKVX.

For `CN(C)CCCCN1c2ccccc2Sc2cc(N=[N+]=[N-])ccc21`, the GI50 is 1.87 µM (inactive) in assay [1]; 9.66 µM (inactive) in [2]; 3.03 µM (inactive) in assay [3]; 3.3 µM (inactive) in assay [4]; 10 µM (inactive) in [5]; 1.83 µM (inactive) in assay [6]. The GI50 in assay [7] was 1.79 µM (inactive); in assay [8], 2.28 µM (inactive); in assay [9], 1.69 µM (inactive); in assay [10], 2.74 µM (inactive); in assay [11] it was 1.83 µM (inactive); in [12], 1.69 µM (inactive). In addition, the GI50 in assay [13] was 2.4 µM (inactive); in assay [14], 1.86 µM (inactive); in assay [15], 2.11 µM (inactive); in assay [16] it was 2.38 µM (inactive); in [17], 1.6 µM (inactive); in assay [18], 1.82 µM (inactive). Also, the figures for the GI50 in assay [19] and in [20] were 1.89 µM (inactive) and 4.15 µM (inactive), respectively.

With `C/C=C\C(C)=C/C(C)C(=O)CC(O)CC1CC(=O)NC(=O)C1` (stereo not given), the GI50 was 20.2 µM (inactive) in assay [1]; 23.7 µM (inactive) in assay [2]; 4.09 µM (inactive) in assay [3]; 17.1 µM (inactive) in assay [4]; 28.6 µM (inactive) in [5]; 20.1 µM (inactive) in assay [6]. For the same compound, the GI50 in [7] was 21.5 µM (inactive); in assay [8] it was 12.1 µM (inactive); in [9], 17.1 µM (inactive); in assay [10], 72.8 µM (inactive); in assay [11], 22.2 µM (inactive); in assay [12], 13.6 µM (inactive). In addition, the GI50 in [13] was 19.1 µM (inactive); in assay [14], 9.31 µM (inactive); in assay [15] it was 40.2 µM (inactive); in [16], 19 µM (inactive); in assay [17], 2.01 µM (inactive); in assay [18] it was 34.4 µM (inactive). Further, the GI50 in [19] is 33.5 µM (inactive); in assay [20] it was > 100 µM (inactive).

Turning to `COc1cc(CCNC2=CC(=O)c3cccnc3C2=O)ccc1O`, the GI50 in assay [1] is 1.4 µM (inactive); in assay [2], 0.809 µM (active); in [3], 0.849 µM (active); in [4], 0.955 µM (active); in [5], 2.6 µM (inactive); in assay [6] it was 0.916 µM (active). Moreover, the GI50 in assay [7] is 1.56 µM (inactive); in [8] it was 1.32 µM (inactive); in [9], 1.6 µM (inactive); in assay [10], 5.48 µM (inactive); in assay [11], 0.869 µM (active); in [12], 1.49 µM (inactive). Moreover, the GI50 in assay [13] was 1.92 µM (inactive); in assay [14], 2.76 µM (inactive); in [15], 2.5 µM (inactive); in assay [16], 1.92 µM (inactive); in [17], 0.721 µM (active); in assay [18] it was 1.22 µM (inactive). For the same compound, the figures for the GI50 in [19] and in assay [20] were 1.73 µM (inactive) and 3.08 µM (inactive), respectively.

As to `CCOC(=O)c1c(N2CCN(C)CC2)[nH]c(=O)c(C(c2c(Cl)cccc2Cl)c2c(O)c(C(=O)OCC)c(N3CCN(C)CC3)[nH]c2=O)c1O`, the GI50 in assay [1] was 31.8 µM (inactive); in assay [2] it was 40.3 µM (inactive); in [3] it was 33.8 µM (inactive); in assay [4], 18.2 µM (inactive); in [5] it was 22.1 µM (inactive); in assay [6], 21.5 µM (inactive). The GI50 in [7] was 27.9 µM (inactive); in [8], 30.3 µM (inactive); in assay [9], 33.1 µM (inactive); in assay [10], 19.1 µM (inactive); in [11] it was 21.3 µM (inactive); in assay [12] it was 30 µM (inactive). The GI50 is 21.5 µM (inactive) in assay [13]; 22.5 µM (inactive) in assay [14]; 19.5 µM (inactive) in [15]; 39.2 µM (inactive) in [16]; 21.9 µM (inactive) in assay [17]; 17.9 µM (inactive) in assay [18]. Also, the GI50 in [19] was 36.8 µM (inactive); in assay [20], 14.5 µM (inactive).
